Measurements from PMC9232612, “A phase 1b randomised controlled trial of a glucagon-like peptide-1 and glucagon receptor dual agonist IBI362 (LY3305677) in Chinese patients with type 2 diabetes” (Nature Communications, 2022).
Where “and” joins values, the source holds several entries; their conditions need not be identical. Identical values can stand only once.

Experiments:
Assay type in all cases: in vivo, human
[1] = test system: Chinese patients with T2D; experiment: Lipids (total cholesterol, LDL cholesterol, triglycerides); conditions: mean
Protocol: Fig. S8: Change from baseline in lipids levels at week 12.
Data are plotted as means +/- SD. IBI362 3.0 mg n = 7; IBI362 4.5 mg n = 5; IBI362 6.0 mg n = 8; Pooled placebo n = 10; Dulaglutide n = 6. CFB = change from baseline; LDL = low density lipoprotein; SD = standard deviation. Source data are provided as a Source Data file.
Total cholesterol LDL cholesterol Triglycerides
CFB in lipids at week 12 (mmol/L),
(1 picture or pasted object on this page, not shown here) […]
Table 4 Routine laboratory safety assessments […]
Lipids Total cholesterol (TC), triglyceride (TG), high-density lipoprotein cholesterol (HDL-C), and low-density lipoprotein cholesterol (LDL-C). […]

[2] = Body weight; conditions: for Percent change from baseline to week 12 in body weight, single patients: each line a single patient; for Percent change from baseline in body weight, LS mean / Percent change from baseline in body weight, LS mean (SE): n=8; for Percent change from baseline in body weight, LS mean / Percent change from baseline in body weight, LS mean (SE) / Body weight (percent CFB): ETD versus placebo, LS mean (90% CI): MMRM; for Percent change from baseline in body weight, LS mean (SE) / Body weight (percent CFB): ETD versus placebo, LS mean (90% CI): week 12
Protocol: (§1) Exploratory outcomes included change from baseline in body weight, waist circumference, body-mass index (BMI) and change in homeostatic model assessment of β-cell function (HOMA-β) and insulin resistance (HOMA-IR).
(§2) The analyses for change from baseline in HbA1c, FPG, post-MTT glucose AUC0–4 h and body weight were performed using the mixed-effect model for repeated measures (MMRM) with least-squares means and standard error provided. The MMRM included the corresponding baseline value, treatment, visit and treatment-by-visit as fixed effects and patient as a random effect. Mean change or mean percent change from baseline were analysed using a restricted maximum likelihood (REML)‐based repeated measures approach in combination with the Newton Raphson Algorithm. The fix effect of visit was fitted as a repeated effect and an unstructured covariance matrix was used. In case of non-converge, matrix like Variance Components and Compound Symmetry will be tested in a subsequent order until model‐convergence is achieved. The Kenward-Roger degree of freedom was used in estimating fixed effects. No missing data imputation was conducted. For HbA1c, FPG and body weight, point estimate of treatment difference versus placebo and 90% CI were provided for each IBI362 dose group and the dulaglutide group, with nominal p values.

[3] = test system: Chinese patients with T2D; experiment: Mixed-meal tolerance test (MTT): plasma glucose and glucose AUC0-4 h; conditions: for Percent change from baseline to week 12 in post-MTT glucose AUC0-4 h, LS mean: MMRM
Protocol: (§3) HbA1c (2200101, Bio-Rad, USA), blood glucose (05168791190, Roche Diagnostics, Germany), insulin (12017547122, Roche Diagnostics, Germany), C peptide (03184897190, Roche Diagnostics, Germany), total GLP-1 (GLP-1 [7–36] amide and its metabolite, GLP-1 [9–36] amide, 10-1278-01, Mercodia AB, Sweden) and OXM (AL-139, AnshLabs, USA) tests were performed according to the manufactures’ instruction manuals in a central laboratory (KingMed Diagnostics, Guangzhou, China). HbA1c was measured using a Bio-rad D-100 Haemoglobin Testing System (Bio-rad). Blood glucose was measured using a Roche Cobas c702 analyser (Roche Diagnostics). Insulin and C peptide were measured using a Roche […] analyser (Roche Diagnostics). GLP-1 and OXM were measured using a Tecan Infinite M Plex microplate reader (TECAN).
(§4) Standard non-compartmental pharmacokinetics methods were used to analyze IBI362 plasma concentration data using Pkanalix 2020R1 (Lixoft, Antony, France). Secondary efficacy outcomes included change from baseline to week 12 in HbA1c, fasting plasma glucose (FPG), fasting insulin levels, change from baseline to week 12 in post-mixed-meal tolerance test (post-MTT) glucose, insulin, C peptide, GLP-1 and OXM levels, as well as seven-point self-measured blood glucose (SMBG) profile.
as §2, with “values. […]” for “values.”
3. Standard meal test (MTT) collection measures included: insulin, C-peptide, plasma glucose, glucagon, endogenous OXM, and endogenous GLP-1. The sampling points include: fasting, 30 min, 1h, 2h, 3h and 4h.
A total of 9 mL blood will be collected from each blood collection point. See the manual of the central laboratory for the detailed operation process. Fasting state refers to fasting for 10 hours. [ The standard meal is
instant noodles. The master Kang roast beef noodles (bucket noodles) purchased by the sponsor in a unified manner are removed from the oil bag. The noodles are soaked in boiled water and then removed. The seasoning
bag is added and mixed well. The time is counted from the first bite of eating. The noodles are eaten within 10 minutes, and 200 mL of water is drunk; or the instant noodles are directly opened with 200 mL of boiled
water to ensure that the noodles are eaten and the water or soup is drunk]. Visit days when MTT test is performed: 1 day prior to Cycle 1 administration, Day 80 (D80). […]
● Test by central laboratory

[4] = test system: Chinese patients with T2D; experiment: Homeostatic model assessment of insulin resistance (HOMA-IR); conditions: for Change from baseline to week 12 in HOMA-IR, individual: single patients
Excerpt: as §1

[5] = test system: Chinese patients with T2D; experiment: Fasting plasma glucose (FPG); conditions: MMRM; for Change from baseline in fasting plasma glucose, LS mean / Change from baseline in fasting plasma glucose, LS mean (SE): n=8; for Change from baseline in fasting plasma glucose, LS mean (SE) / Fasting plasma glucose: ETD versus placebo, LS mean (90% CI): week 12
Protocol: as §3, §4, §2

## CC(C)C[C@H](NC(=O)[C@H](CC(C)C)NC(=O)[C@H](Cc1c[nH]c2ccccc12)NC(=O)[C@H](CCC(=O)O)NC(=O)[C@@H](NC(=O)[C@H](Cc1ccccc1)NC(=O)[C@H](CCC(=O)O)NC(=O)[C@H](CCCCNC(=O)COCCOCCNC(=O)COCCOCCNC(=O)CC[C@H](NC(=O)CCCCCCCCCCCCCCCCCCC(=O)O)C(=O)O)NC(=O)[C@H](C)NC(=O)[C@H](CCCCN)NC(=O)[C@H](CCCCN)NC(=O)[C@H](CCC(=O)O)NC(=O)[C@H](CC(=O)O)NC(=O)[C@H](CC(C)C)NC(=O)[C@H](Cc1ccc(O)cc1)NC(=O)[C@H](CCCCN)NC(=O)[C@H](CO)NC(=O)[C@H](Cc1ccc(O)cc1)NC(=O)[C@H](CC(=O)O)NC(=O)[C@H](CO)NC(=O)[C@@H](NC(=O)[C@H](Cc1ccccc1)NC(=O)[C@@H](NC(=O)CNC(=O)[C@H](CCC(N)=O)NC(=O)C(C)(C)NC(=O)[C@@H](N)Cc1c[nH]cn1)[C@@H](C)O)[C@@H](C)O)C(C)C)C(=O)N[C@@H](CCC(=O)O)C(=O)NCC(=O)NCC(=O)N1CCC[C@H]1C(=O)N[C@@H](CO)C(=O)N[C@@H](CO)C(=O)NCC(N)=O [IBI362]
[1]; IBI362 3.0 mg
  Change from baseline to week 12 in LDL cholesterol: -0.33 mmol/L
  Change from baseline to week 12 in total cholesterol: -0.71 mmol/L
  Change from baseline to week 12 in triglycerides: -0.83 mmol/L
[1]; IBI362 4.5 mg
  Change from baseline to week 12 in LDL cholesterol: -1.15 mmol/L
  Change from baseline to week 12 in total cholesterol: -1.68 mmol/L
  Change from baseline to week 12 in triglycerides: -0.23 mmol/L
[1]; IBI362 6.0 mg
  Change from baseline to week 12 in LDL cholesterol: -0.90 mmol/L
  Change from baseline to week 12 in total cholesterol: -1.17 mmol/L
  Change from baseline to week 12 in triglycerides: -0.66 mmol/L
[2]; across IBI362 cohorts
  body weight reductions from baseline to week 12 (up to): up to 5.4%
[2]; 3.0 mg cohort
  Percent change from baseline to week 12 in body weight, single patients: -0.9% and -2.2% and 0.6% and -1.0% and 0.0% and -5.1%
  Percent change from baseline in body weight, LS mean (SE): −0.9 (1.3) % and −0.9%
  Body weight (percent CFB): ETD versus placebo, LS mean (90% CI): 0.1 ( −2.6, 2.8) %
[2]; 4.5 mg cohort
  Percent change from baseline to week 12 in body weight, single patients: -15.9% and -3.7% and 1.3% and -1.6% and -6.0%
  Percent change from baseline in body weight, LS mean (SE): -5.0%
  Body weight (percent CFB): ETD versus placebo, LS mean (90% CI): −4.0 (−6.7, −1.2) % and −4.0%
[2]; week 4, 3.0 mg cohort
  Percent change from baseline in body weight, LS mean: 0.1%
[2]; week 4, 4.5 mg cohort
  Percent change from baseline in body weight, LS mean: -1.1%
[2]; week 4, 6.0 mg cohort
  Percent change from baseline in body weight, LS mean: -1.7%
[2]; week 8, 3.0 mg cohort
  Percent change from baseline in body weight, LS mean: -0.2%
[2]; week 8, 4.5 mg cohort
  Percent change from baseline in body weight, LS mean: -2.1%
[2]; week 8, 6.0 mg cohort
  Percent change from baseline in body weight, LS mean: -3.3%
[2]; 6.0 mg cohort
  Percent change from baseline in body weight, LS mean (SE): -5.4%
  Body weight (percent CFB): ETD versus placebo, LS mean (90% CI): −4.4 (−7.0, −1.7) % and −4.4%
[3]; 3.0 mg cohort, n=8
  Percent change from baseline to week 12 in post-MTT glucose AUC0-4 h, LS mean: −37.0% and -36.99%
[3]; 4.5 mg cohort, n=8
  Percent change from baseline to week 12 in post-MTT glucose AUC0-4 h, LS mean: −38.9% and -38.89%
[3]; 6.0 mg cohort, n=8
  Percent change from baseline to week 12 in post-MTT glucose AUC0-4 h, LS mean: −43.9% and -43.88%
[3]; week 12, 0 min, 3.0 mg cohort, n=7
  Glucose during MTT, mean: 7.91 mmol/L
[3]; week 12, 0 min, 4.5 mg cohort, n=5
  Glucose during MTT, mean: 7.75 mmol/L
[3]; week 12, 0 min, 6.0 mg cohort, n=8
  Glucose during MTT, mean: 7.11 mmol/L
[3]; week 12, 30 min, 3.0 mg cohort, n=7
  Glucose during MTT, mean: 10.06 mmol/L
[3]; week 12, 30 min, 4.5 mg cohort, n=5
  Glucose during MTT, mean: 9.84 mmol/L
[3]; week 12, 30 min, 6.0 mg cohort, n=8
  Glucose during MTT, mean: 9.53 mmol/L
[3]; week 12, 60 min, 3.0 mg cohort, n=7
  Glucose during MTT, mean: 13.39 mmol/L
[3]; week 12, 60 min, 4.5 mg cohort, n=5
  Glucose during MTT, mean: 11.82 mmol/L
[3]; week 12, 60 min, 6.0 mg cohort, n=8
  Glucose during MTT, mean: 11.83 mmol/L
[3]; week 12, 120 min, 3.0 mg cohort, n=7
  Glucose during MTT, mean: 11.24 mmol/L
[3]; week 12, 120 min, 4.5 mg cohort, n=5
  Glucose during MTT, mean: 10.28 mmol/L
[3]; week 12, 120 min, 6.0 mg cohort, n=8
  Glucose during MTT, mean: 9.52 mmol/L
[3]; week 12, 180 min, 3.0 mg cohort, n=7
  Glucose during MTT, mean: 8.73 mmol/L
[3]; week 12, 180 min, 4.5 mg cohort, n=5
  Glucose during MTT, mean: 8.34 mmol/L
[3]; week 12, 180 min, 6.0 mg cohort, n=8
  Glucose during MTT, mean: 7.51 mmol/L
[3]; week 12, 240 min, 3.0 mg cohort, n=7
  Glucose during MTT, mean: 7.23 mmol/L
[3]; week 12, 240 min, 4.5 mg cohort, n=5
  Glucose during MTT, mean: 7.08 mmol/L
[3]; week 12, 240 min, 6.0 mg cohort, n=8
  Glucose during MTT, mean: 6.63 mmol/L
[4]; 3.0 mg cohort, n=7
  Change from baseline to week 12 in HOMA-IR, mean: -2.1
  Change from baseline to week 12 in HOMA-IR, individual: -4.8 and -1.3 and -2.3 and -1.2 and -2.4
[4]; 4.5 mg cohort, n=5
  Change from baseline to week 12 in HOMA-IR, mean: -1.5
  Change from baseline to week 12 in HOMA-IR, individual: -2.8 and -5.0 and -1.9 and 2.5 and -0.5
[4]; 6.0 mg cohort, n=8
  Change from baseline to week 12 in HOMA-IR, mean: -5.4
  Change from baseline to week 12 in HOMA-IR, individual: -1.9 and -5.3 and -0.4 and -4.2 and -1.1 and -1.0 and -22.2 and -7.0
[5]; week 4, 3.0 mg cohort
  Change from baseline in fasting plasma glucose, LS mean: -2.29 mmol/L
[5]; week 4, 4.5 mg cohort
  Change from baseline in fasting plasma glucose, LS mean: -2.47 mmol/L
[5]; week 4, 6.0 mg cohort
  Change from baseline in fasting plasma glucose, LS mean: -3.03 mmol/L
[5]; week 8, 3.0 mg cohort
  Change from baseline in fasting plasma glucose, LS mean: -2.95 mmol/L
[5]; week 8, 4.5 mg cohort
  Change from baseline in fasting plasma glucose, LS mean: -3.38 mmol/L
[5]; week 8, 6.0 mg cohort
  Change from baseline in fasting plasma glucose, LS mean: -3.50 mmol/L
[5]; 3.0 mg cohort
  Change from baseline in fasting plasma glucose, LS mean (SE): −3.38 (0.49) mmol/L and −3.38 mmol/L
  Fasting plasma glucose: ETD versus placebo, LS mean (90% CI): -0.85 mmol/L
[5]; 4.5 mg cohort
  Change from baseline in fasting plasma glucose, LS mean (SE): -3.82 mmol/L
  Fasting plasma glucose: ETD versus placebo, LS mean (90% CI): -1.30 mmol/L
[5]; 6.0 mg cohort
  Change from baseline in fasting plasma glucose, LS mean (SE): -4.07 mmol/L
